According to patent US8278074B2, “L-glutamic acid-producing microorganism and a method for producing L-glutamic acid” (priority 2004, dated 2012):

How the values were obtained:
Assay type in all cases: cell-based, Corynebacterium glutamicum
[1] = tested on: mutant-type yggB gene-introduced strains (ATCC13869-L30 strain, ATCC13869-A1 strain); assay: Resistance to 4-fluoroglutamic acid on a solid medium; conditions: minimum plate medium, 7.5 mM 4-fluoroglutamic acid, 31.5° C., compared with wild-type ATCC13869 strain (FIG. 6)
Method: 4-fluoroglutamic acid solution which was adjusted to pH6.7 with NaOH and sterilized with filtration was added to the minimum medium described in Example 4 so that the final concentration of 4-fluoroglutamic acid was 7.5 mM. Each of the ATCC13869 strain, ATCC13869-L30 strain, and ATCC13869-A1 strain was spread over the CM-Dex plate and cultured overnight.

ATCC13869-A1 strain = assay: Resistance to 4-fluoroglutamic acid in a liquid medium; conditions: minimum liquid medium, 1.25 mM to 20 mM 4-fluoroglutamic acid, 31.5° C., culture without 4-fluoroglutamic acid set to 1 (FIG. 7)
Method: (§1) 4-fluoroglutamic acid was added into the minimum liquid medium having the same composition as described in Example 4 but not containing agar to the final concentration of 1.25 mM, 2.5 mM, 5 mM, 10 mM, and 20 mM, respectively. Each of the ATCC13869 strain, ATCC13869ΔyggB strain, ATCC13869-L30 strain, and ATCC13869-A1 strain was spread over a CM-Dex plate and cultured at 31.5° C. overnight. Then, cells were collected, and after washing with the sterilized 0.85% NaCl solution, inoculated into the liquid medium and cultured at 31.5° C. with shaking. When the OD660 of each strain cultured without 4-fluoroglutamic acid reached 1.0, the culture was terminated and the obtained culture solution was diluted appropriately and spread over the CM-Dex plate overnight. The number of colonies which appeared were calculated and designated as a viable cell number.

ATCC13869-L30 strain = assay: as above; conditions: minimum liquid medium, 1.25 mM to 20 mM 4-fluoroglutamic acid, 31.5° C., culture without 4-fluoroglutamic acid set to 1 (FIG. 7)
Method: as §1

For `N[C@@H](CC(F)C(=O)O)C(=O)O` (stereo partly drawn) [4-fluoroglutamic acid], the “growth in the presence of 4-fluoroglutamic acid” value [1] was “grow faster than wild-type ATCC13869 strain”, the “sensitivity to 4-fluoroglutamic acid (relative viable cell number)” value (ATCC13869-A1 strain) was “decreased sensitivity” and the “sensitivity to 4-fluoroglutamic acid (relative viable cell number)” value (ATCC13869-L30 strain) was “decreased sensitivity”.
